Experimental data published in patent US9321767B2, “Azabenzimidazoles as respiratory syncytial virus antiviral agents” (JANSSEN SCIENCES IRELAND UC, priority 2010, dated 2016).

What was measured:
HeLa cells = assay: Cytotoxicity in HeLa cells, ATP content (ATPlite kit); assay type: cell-based; conditions: HeLa cells, three days incubation, ATP content
Method: (§1) Black 96-well clear-bottom microtiter plates (Corning, Amsterdam, The Netherlands) were filled in duplicate using a customized robot system with serial 4-fold dilutions of compound in a final volume of 50 μl culture medium [RPMI medium without phenol red, 10% FBS, 0.04% gentamycin (50 mg/mL) and 0.5% DMSO]. Then, 100 μl of a HeLa cell suspension (5×10^4 cells/mL) in culture medium was added to each well followed by the addition of 50 μl rgRSV224 (MOI=0.02) virus in culture medium using a multidrop dispenser (Thermo Scientific, Erembodegem, Belgium). rgRSV224 virus is an engineered virus that includes an additional GFP gene (Hallak et al, 2000) and was in-licensed from the NIH (Bethesda, Md., USA). Medium, virus- and mock-infected controls were included in each test. Cells were incubated at 37° C. in a 5% CO2 atmosphere. Three days post-virus exposure, viral replication was quantified by measuring GFP expression in the cells by a MSM laser microscope (Tibotec, Beerse, Belgium). The EC50 was defined as the 50% inhibitory concentration for GFP expression. In parallel, compounds were incubated for three days in a set of white 96-well microtitier plates (Corning) and the cytotoxicity of compounds in HeLa cells was determined by measuring the ATP content of the cells using the ATPlite kit (PerkinElmer, Zaventem, Belgium) according to the manufacturer's instructions. The CC50 was defined as the 50% concentration for cytotoxicity.

rgRSV224 virus = assay: microbe, parasite or virus in culture; assay type: cell-based, respiratory syncytial virus (RSV); conditions: human respiratory syncytial virus, HeLa, 72 h, read-out: RSV-wt_EC50
Method: as §1

SMILES	TOX-HELA_EC50 (HeLa cells) [µM]	EC50 (rgRSV224 virus) [nM]
O=c1n(Cc2nc3cc(Br)cnc3n2CCCCO)c2cnccc2n1C1COC1 [Compound 20, 3-((6-bromo-3-(4-hydroxybutyl)-3H-imidazo[4,5-b]pyridin-2-yl)methyl)-1-(oxetan-3-yl)-1H-imidazo[4,5-c]pyridin-2(3H)-one]	>9.836	36.1
CC(C)CCn1c(Cn2c(=O)n(C3CC3)c3ccncc32)nc2cnccc21 [Compound 33]	>98.3603	30.4
CC(C)CCn1c(Cn2c(=O)n(C3CC3)c3ccncc32)nc2cc(Br)cnc21 [Compound 16, 3-((6-bromo-3-isopentyl-3H-imidazo[4,5-b]pyridin-2-yl)methyl)-1-cyclopropyl-1H-imidazo[4,5-c]pyridin-2(3H)-one]	>98.3603	8.81
CC(C)CCn1c(Cn2c(=O)n(C(C)C)c3ccnc(Cl)c32)nc2cccnc21 [Compound 25, 4-chloro-3-((3-isopentyl-3H-imidazo[4,5-b]pyridin-2-yl)methyl)-1-isopropyl-1H-imidazo[4,5-c]pyridin-2(3H)-one]	>24.5901	8270
CS(=O)(=O)CCCn1c(Cn2c(=O)n(C3CC3)c3ccncc32)nc2ncccc21 [Compound 7, 1-cyclopropyl-3-((1-(3-(methylsulfonyl)propyl)-1H-imidazo[4,5-b]pyridin-2-yl)methyl)-1H-imidazo[4,5-c]pyridin-2(3H)-one]	>9.836	13.7
CC(C)CCn1c(Cn2c(=O)n(C3CC3)c3ccncc32)nc2cc(CN)cnc21 [Compound 17, 3-((6-(aminomethyl)-3-isopentyl-3H-imidazo[4,5-b]pyridine-2-yl)methyl)-1-cyclopropyl-1H-imidazo[4,5-c]pyridin-2(3H)-one]	>98.3603	11.8
COCCCn1c(Cn2c(=O)n(C3CC3)c3ccc(F)cc32)nc2ncccc21 [Compound 15, 1-cyclopropyl-5-fluoro-3-((1-(3-methoxypropyl)-1H-imidazo[4,5-b]pyridin-2-yl)methyl)-1H-benzo[d]imidazol-2(3H)-one]	>98.3603	220
CC(C)CCn1c(Cn2c(=O)n(C3CC3)c3ccccc32)nc2ncccc21 [Compound 4, 1-cyclopropyl-3-((1-isopentyl-1H-imidazo[4,5-b]pyridin-2-yl)methyl)-1H-benzo[d]imidazol-2(3H)-one]	>9.836	7.08
CC(C)CCn1c(Cn2c(=O)n(C3CC3)c3ccc(F)cc32)nc2ncccc21 [Compound 8, 1-cyclopropyl-5-fluoro-3-((1-isopentyl-1H-imidazo[4,5-b]pyridin-2-yl)methyl)-1H-benzo[d]imidazol-2(3H)-one]	>9.836	15.9
CC(C)CCn1c(Cn2c(=O)n(C3CC3)c3ccncc32)nc2nc(C(F)(F)F)ccc21 [Compound 44, 1-cyclopropyl-3-((1-isopentyl-5-(trifluoromethyl)-1H-imidazo[4,5-b]pyridin-2-yl)methyl)-1H-imidazo[4,5-c]pyridin-2(3H)-one]	>98.3603	19
CC(C)CCn1c(Cn2c(=O)n(C3CC3)c3ccncc32)nc2ccncc21 [Compound 34]	>98.3603	74
COCCCn1c(Cn2c(=O)n(C3CC3)c3ccncc32)nc2ncccc21 [Compound 10]	4.756	89.3
CC(C)CCn1c(Cn2c(=O)n(C3COC3)c3ccncc32)nc2cnccc21 [Compound 36]	>9.836	94.9
COC(=O)c1cnc2c(c1)nc(Cn1c(=O)n(C3CC3)c3ccncc31)n2CCC(C)C [Compound 26, methyl 2-((1-cyclopropyl-2-oxo-1H-imidazo[4,5-c]pyridin-3(2H)-yl)methyl)-3-isopentyl-3H-imidazo[4,5-b]pyridine-6-carboxylate]	>98.3603	8610
CC(C)CCn1c(Cn2c(=O)n(C3CC3)c3ccncc32)nc2cccnc21 [Compound 24, 1-cyclopropyl-3-((3-isopentyl-3H-imidazo[4,5-b]pyridin-2-yl)methyl)-1H-imidazo[4,5-c]pyridin-2(3H)-one]	>98.3603	1220
CC(C)CCn1c(Cn2c(=O)n(C3CC3)c3ccncc32)nc2cc(B(O)O)cnc21 [Compound 23, 2-((1-cyclopropyl-2-oxo-1H-imidazo[4,5-c]pyridin-3(2H)-yl)methyl)-3-isopentyl-3H-imidazo[4,5-b]pyridin-6-ylboronic acid]	>98.3603	645
O=c1n(Cc2nc3nc(Cl)ccc3n2CCCC(F)(F)F)c2cnccc2n1C1CC1 [Compound 39, 3-((5-chloro-1-(4,4,4-trifluorobutyl)-1H-imidazo[4,5-b]pyridin-2-yl)methyl)-1-cyclopropyl-1H-imidazo[4,5-c]pyridin-2(3H)-one]	>98.3603	0.96
CC(C)CCn1c(Cn2c(=O)n(C3CC3)c3ccncc32)nc2cc(C(=O)O)cnc21 [Compound 28, 2-((1-cyclopropyl-2-oxo-1H-imidazo[4,5-c]pyridin-3(2H)-yl)methyl)-3-isopentyl-3H-imidazo[4,5-b]pyridine-6-carboxylic acid]	>49.1802	> 49200
O=c1n(Cc2nc3cc(F)cnc3n2CCCCO)c2cnccc2n1C1CC1 [Compound 22, 1-cyclopropyl-3-((6-fluoro-3-(4-hydroxybutyl)-3H-imidazo[4,5-b]pyridin-2-yl)methyl)-1H-imidazo[4,5-c]pyridin-2(3H)-one]	>9.836	403
O=c1n(Cc2nc3cc(Br)cnc3n2CCCCO)c2cnccc2n1C1CC1 [Compound 19, 3-((6-bromo-3-(4-hydroxybutyl)-3H-imidazo[4,5-b]pyridin-2-yl)methyl)-1-cyclopropyl-1H-imidazo[4,5-c]pyridin-2(3H)-one]	>98.3603	19.1
CC(C)CCn1c(Cn2c(=O)n(C3COC3)c3ccncc32)nc2ncccc21 [Compound 9, 3-((1-isopentyl-1H-imidazo[4,5-b]pyridin-2-yl)methyl)-1-(oxetan-3-yl)-1H-imidazo[4,5-c]pyridin-2(3H)-one]	>9.836	58.1
O=c1n(Cc2nc3nc(Cl)ccc3n2CCCCF)c2cnccc2n1C1CC1 [Compound 40, 3-((5-chloro-1-(4-fluorobutyl)-1H-imidazo[4,5-b]pyridin-2-yl)methyl)-1-cyclopropyl-1H-imidazo[4,5-c]pyridin-2(3H)-one]	>98.3603	2
O=c1n(Cc2nc3nc(Cl)ccc3n2CCCCO)c2cnccc2n1C1CC1 [Compound 14, 3-((5-chloro-1-(4-hydroxybutyl)-1H-imidazo[4,5-b]pyridin-2-yl)methyl)-1-cyclopropyl-1H-imidazo[4,5-c]pyridin-2(3H)-one]	>9.84	6
CC(C)CCn1c(Cn2c(=O)n(C3CC3)c3ccncc32)nc2ncccc21 [Compound 5, 1-cyclopropyl-3-((1-isopentyl-1H-imidazo[4,5-b]pyridin-2-yl)methyl)-1H-imidazo[4,5-c]pyridin-2(3H)-one]	>98.3603	8.67
